Results: ChEMBL document CHEMBL3997835, “Isoquinoline alkaloids from Coptis japonica stimulate the myoblast differentiation via p38 MAP-kinase and Akt signaling pathway” (Bioorg Med Chem Lett, 2017)
Activity calls are given as the source filed them. No cut-off for these calls is given here.

What was measured:
[1] = system: C2C12; experiment: Induction of MyoD transcriptional activity in mouse C2C12 cells expressing MyoD-responsive 4RTK-Luc at 10 nM after 24 hrs by luciferase reporter gene assay; assay type: functional, cell-based
[2] = system: C2C12; experiment: Cytotoxicity against mouse C2C12 cells at 10 nM up to 24 hrs; assay type: cell-based; settings: c2c12, 24 h, 0.01 µM
[3] = system: C2C12; experiment: Induction of myoblast differentiation in mouse C2C12 cells expressing MyoD-responsive 4RTK-Luc assessed as increase in MHC protein expression at 10 nM after 2 days by Western blot analysis; assay type: functional, cell-based
[4] = system: C2C12; experiment: Induction of myoblast differentiation in mouse C2C12 cells assessed as increase in MHC protein expression after 2 days by Western blot analysis; assay type: functional, cell-based
[5] = system: C2C12; experiment: Induction of myoblast differentiation in mouse C2C12 cells assessed as cylinder shaped multinucleated myotubes after 2 days by DAPI staining based immunofluorescence assay; assay type: functional, cell-based
[6] = biological target: RAC-alpha serine/threonine-protein kinase (Mus musculus) (UniProt P31750); experiment: Induction of Akt phosphorylation in mouse C2C12 cells up to 10 nM after 2 days by Western blot analysis; assay type: cell-based
RAC-alpha serine/threonine-protein kinase (Mus musculus), sequence (P31750 whole entry): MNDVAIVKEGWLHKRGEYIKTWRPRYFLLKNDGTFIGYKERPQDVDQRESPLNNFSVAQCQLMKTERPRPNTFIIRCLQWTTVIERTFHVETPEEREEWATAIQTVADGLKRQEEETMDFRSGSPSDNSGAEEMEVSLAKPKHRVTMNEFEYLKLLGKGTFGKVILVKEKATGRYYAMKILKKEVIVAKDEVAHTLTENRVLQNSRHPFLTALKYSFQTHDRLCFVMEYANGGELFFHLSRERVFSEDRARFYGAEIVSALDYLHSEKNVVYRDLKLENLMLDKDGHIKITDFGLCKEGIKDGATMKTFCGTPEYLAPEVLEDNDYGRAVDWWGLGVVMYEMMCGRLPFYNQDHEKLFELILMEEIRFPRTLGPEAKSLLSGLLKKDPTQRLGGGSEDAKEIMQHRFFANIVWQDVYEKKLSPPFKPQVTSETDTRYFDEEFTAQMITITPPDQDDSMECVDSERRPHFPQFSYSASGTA

[7] = biological target: MAP kinase p38 (Mus musculus) (UniProt P47811+O08911+Q9WUI1+Q9Z1B7); experiment: Induction of p38 MAPK phosphorylation in mouse C2C12 cells at 0.1 nM after 2 days by Western blot analysis relative to control; assay type: cell-based
[8] = system: C2C12; experiment: Induction of myoblast differentiation in mouse C2C12 cells assessed as increase in MHC expression after 2 days by DAPI staining based immunofluorescence assay; assay type: functional, cell-based
[9] = system: C2C12; experiment: Induction of myoblast differentiation in mouse C2C12 cells assessed as increase in MyoD protein expression after 2 days by Western blot analysis; assay type: functional, cell-based

## COc1cc2c(cc1OC)-c1cc3ccc4c(c3c[n+]1CC2)OCO4
[1]
  Activity: Active
[2]
  Activity: Non-Toxic
[3]
  Activity: Active

## OC1c2c(ccc3c2OCO3)C=C2c3cc4c(cc3CCN21)OCO4 (centres undefined)
[1]
  Activity: Active
[2]
  Activity: Non-Toxic
[3]
  Activity: Active

## COc1ccc2cc3[n+](cc2c1OC)CCc1cc2c(cc1-3)OCO2 [BERBERINE]
[1]
  Activity: Active
[2]
  Activity: Non-Toxic
[3]
  Activity: Active

## COc1cc2c(cc1O)CC[n+]1cc3c(OC)c(OC)ccc3cc1-2 [JATRORRHIZINE]
[1]
  Activity: Active
[2]
  Activity: Non-Toxic
[3]
  Activity: Active

## COc1ccc2c(c1O)-c1c(O)c(OC)cc3c1[C@H](C2)[N+](C)(C)CC3 [MAGNOFLORINE]
[1]
  Activity: Active
[4]
  Activity: Dose-dependent effect
[5]
  Activity: Dose-dependent effect
[6]
  Activity: Active
[2]
  Activity: Non-Toxic
[7]
  fold change (FC): 6
[8]
  Activity: Dose-dependent effect
[3]
  Activity: Active
[9]
  Activity: Dose-dependent effect

## COc1cc2c(cc1OC)-c1cc3ccc(OC)c(OC)c3c[n+]1CC2 [PALMITINE]
[1]
  Activity: Active
[2]
  Activity: Non-Toxic
[3]
  Activity: Active
